Data: US20240277781A1, “Compositions Comprising Microbes and Methods of Use and Making Thereof” (Pendulum Therapeutics, Inc., priority 2021, published 2024)

Columns and labels:
[1] = system: formulation strains (AMUC, BINF, CBEI, CBUT, EHAL); assay type: cell-based
[2] = taken orally; cited from earlier work

Compound	growth inhibition of formulation strains (yield decrease, lag increase) [1]	fecal elimination percentage [2] [%]	plasma half-life [2] [h]
CCC1=C(C)CN(C(=O)NCCc2ccc(S(=O)(=O)NC(=O)N[C@H]3CC[C@H](C)CC3)cc2)C1=O [glimepiride]	largest inhibitory effect overall	40	5 to 8
Cc1cnc(C(=O)NCCc2ccc(S(=O)(=O)NC(=O)NC3CCCCC3)cc2)cn1 [glipizide]		10	
COc1ccc(Cl)cc1C(=O)NCCc1ccc(S(=O)(=O)NC(=O)NC2CCCCC2)cc1 [glyburide]	largest inhibitory effect overall	50	4 to 10
